The text below walks through data of paper PMC2000878, “Module structure of interphotoreceptor retinoid-binding protein (IRBP) may provide bases for its complex role in the visual cycle – structure/function study of Xenopus IRBP” (BMC Biochemistry, 2007).

For test [1], the target named is T1, full-length Xenopus IRBP (Xenopus laevis, UniProt Q7SZI7).
T1 construct: We expressed the full-length IRBP as well as its individual modules as thioredoxin-fusion proteins using pTrxFus and pThioHis vectors; made in house; host or cells: E. coli Top10 (pThioHis)
T1 sequence (Q7SZI7 23-1219): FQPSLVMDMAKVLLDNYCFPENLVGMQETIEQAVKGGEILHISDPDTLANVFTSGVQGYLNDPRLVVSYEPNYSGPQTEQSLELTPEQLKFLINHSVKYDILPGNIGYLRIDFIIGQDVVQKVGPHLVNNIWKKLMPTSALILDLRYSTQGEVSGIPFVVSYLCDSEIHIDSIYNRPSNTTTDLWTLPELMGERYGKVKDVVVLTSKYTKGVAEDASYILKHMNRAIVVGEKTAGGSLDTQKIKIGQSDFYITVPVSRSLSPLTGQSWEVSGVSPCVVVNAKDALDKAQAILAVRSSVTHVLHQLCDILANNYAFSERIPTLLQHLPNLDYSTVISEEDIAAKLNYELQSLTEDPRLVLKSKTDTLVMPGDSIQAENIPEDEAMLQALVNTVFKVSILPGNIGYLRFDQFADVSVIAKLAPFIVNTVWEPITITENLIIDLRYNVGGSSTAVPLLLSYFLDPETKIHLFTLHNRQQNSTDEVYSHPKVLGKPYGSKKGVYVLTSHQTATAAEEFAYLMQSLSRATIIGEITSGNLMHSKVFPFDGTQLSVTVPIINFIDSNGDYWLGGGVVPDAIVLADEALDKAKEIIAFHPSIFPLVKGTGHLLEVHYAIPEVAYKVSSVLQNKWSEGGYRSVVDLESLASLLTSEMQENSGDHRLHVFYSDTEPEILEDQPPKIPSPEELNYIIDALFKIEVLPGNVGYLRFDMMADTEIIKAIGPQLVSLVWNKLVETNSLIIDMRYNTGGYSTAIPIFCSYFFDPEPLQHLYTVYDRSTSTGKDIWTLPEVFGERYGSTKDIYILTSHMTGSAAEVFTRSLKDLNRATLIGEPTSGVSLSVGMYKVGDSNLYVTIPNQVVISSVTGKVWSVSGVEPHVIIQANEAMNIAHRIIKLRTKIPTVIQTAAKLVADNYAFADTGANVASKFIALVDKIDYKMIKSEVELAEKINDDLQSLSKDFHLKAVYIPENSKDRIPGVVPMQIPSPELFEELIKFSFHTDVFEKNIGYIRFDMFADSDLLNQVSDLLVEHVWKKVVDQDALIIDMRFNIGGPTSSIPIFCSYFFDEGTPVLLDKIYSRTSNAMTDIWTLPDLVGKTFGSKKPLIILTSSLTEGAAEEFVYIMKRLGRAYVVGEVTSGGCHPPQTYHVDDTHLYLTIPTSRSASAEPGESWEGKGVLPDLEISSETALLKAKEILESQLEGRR
Kind of test: Fluorometric titration (ligand fluorescence enhancement, protein quenching, energy transfer). Format: binding. An excerpt: The binding parameters of retinoid-binding proteins including IRBP may be determined by fluorescence spectroscopy. The method utilizes changes in quantum yield occurring during ligand binding. Such changes are represented by enhancement of ligand fluorescence, quenching of intrinsic protein fluorescence, and transfer of energy from protein to bound ligand. Fluorescence enhancement occurs if the quantum yield of the ligand's fluorescence is higher in the hydrophobic environment of the ligand-binding domain compared to that outside of the domain.
[…] We previously derived an equation that is generally useful for describing such quantum yield changes that are consequent upon ligand binding. This equation has been previously applied to the analysis of binding by monitoring the enhancement of retinol fluorescence. In this case, […], the fluorescence enhancement (Fenh) depends on the total retinol concentration (Rt), the dissociation constant (Kd ^all-trans), the number of retinol-binding sites per protein molecule (N) and the total protein concentration (Pt).
Assuming that there is a single type of noninteracting site on the protein, (Fenh) is expected to be linearly related to the concentration of bound retinol molecules. Fenh is given by the relation
Fenh=C1+C2[Rtall−trans−(Rtall−trans+NPt+Kdall−trans)^2−4NPtRtall−trans] MathType@MTEF@5@5@+=feaafiart1ev1aaatCvAUfKttLearuWrP9MDH5MBPbIqV92AaeXatLxBI9gBaebbnrfifHhDYfgasaacH8akY=wiFfYdH8Gipec8Eeeu0xXdbba9frFj0=OqFfea0dXdd9vqai=hGuQ8kuc9pgc9s8qqaq=dirpe0xb9q8qiLsFr0=vr0=vr0dc8meaabaqaciaacaGaaeqabaqabeGadaaakeaacqWGgbGrdaWgaaWcbaGaemyzauMaemOBa4MaemiAaGgabeaakiabg2da9iabdoeadnaaBaaaleaacqaIXaqmaeqaaOGaey4kaSIaem4qam0aaSbaaSqaaiabikdaYaqabaGcdaWadaqaaiabdkfasnaaDaaaleaacqWG0baDaeaacqWGHbqycqWGSbaBcqWGSbaBcqGHsislcqWG0baDcqWGYbGCcqWGHbqycqWGUbGBcqWGZbWCaaGccqGHsisldaGcaaqaamaabmaabaGaemOuai1aa0baaSqaaiabdsha0bqaaiabdggaHjabdYgaSjabdYgaSjabgkHiTiabdsha0jabdkhaYjabdggaHjabd6gaUjabdohaZbaakiabgUcaRiabd6eaojabdcfaqnaaBaaaleaacqWG0baDaeqaaOGaey4kaSIaem4saS0aa0baaSqaaiabdsgaKbqaaiabdggaHjabdYgaSjabdYgaSjabgkHiTiabdsha0jabdkhaYjabdggaHjabd6gaUjabdohaZbaaaOGaayjkaiaawMcaamaaCaaaleqabaGaeGOmaidaaOGaeyOeI0IaeGinaqJaemOta4Kaemiuaa1aaSbaaSqaaiabdsha0bqabaGccqWGsbGudaqhaaWcbaGaemiDaqhabaGaemyyaeMaemiBaWMaemiBaWMaeyOeI0IaemiDaqNaemOCaiNaemyyaeMaemOBa4Maem4CamhaaaqabaaakiaawUfacaGLDbaaaaa@8490@
The equation was fit to the data by nonlinear least-squares analysis. […] For the quenching studies the inner filter effect was accounted for by graphical correction as previously described. Fluorescence measurements were made using an SLM 8000TM C photon counting spectrofluorometer corrected for wavelength dependence of source energy and detector response.

In test [2] the target is T2, Xenopus IRBP Module 4 (Xenopus laevis, UniProt Q7SZI7).
T2 construct: cDNAs corresponding to the full-length IRBP, module 1, and module 2 were expressed in pThioHis; modules 3 and 4 were expressed in pTrxFus; made in house; host or cells: E. coli GI724 / GI698 (pTrxFus)
T2 sequence (Q7SZI7 923-1219): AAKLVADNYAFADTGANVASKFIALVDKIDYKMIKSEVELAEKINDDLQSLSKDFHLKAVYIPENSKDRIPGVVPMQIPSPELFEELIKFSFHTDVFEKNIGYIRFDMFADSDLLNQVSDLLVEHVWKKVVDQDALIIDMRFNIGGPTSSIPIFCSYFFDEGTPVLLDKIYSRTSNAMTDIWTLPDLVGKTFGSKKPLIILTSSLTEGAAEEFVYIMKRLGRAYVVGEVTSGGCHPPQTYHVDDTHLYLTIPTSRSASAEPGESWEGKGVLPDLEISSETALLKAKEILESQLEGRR
Kind of test: Competitive fluorescence titration of all-trans retinol with 11-cis retinaldehyde. Format: binding. As to conditions: protein 1.00 μM. As to the method:
Figure 9 Competitive inhibition by 11-cis retinaldehyde of all-trans retinol binding to the individual modules of Xenopus IRBP. Binding of all-trans retinol to the individual modules was measured by fluorescence enhancement in the presence of varying amounts of 11-cis retinal. Panels A through D correspond to modules 1 through 4 respectively. […] Three dimensional nonlinear regression was used to determine the number of binding sites, the dissociation constant of all-trans retinol, and the dissociation constant of 11-cis retinal for each of the individual modules. The concentrations of the proteins used in the titrations were as follows: module 1 (0.99 μM; panel A); module 2 (1.10 μM; panel B); module 3 (1.10 μM; panel C); module 4 (1.00 μM; panel D).
To describe the displacement of all-trans retinol by 11-cis retinaldehyde, Equation 1 was modified to take into account the competition between the two ligands. The apparent dissociation constants for all-trans retinol measured under these conditions is related to the dissociation constant of 11-cis retinaldehyde through the following expression.
Kapp=Kdall−trans[1+Rt11−cis/Kd11−cis] MathType@MTEF@5@5@+=feaafiart1ev1aaatCvAUfKttLearuWrP9MDH5MBPbIqV92AaeXatLxBI9gBaebbnrfifHhDYfgasaacH8akY=wiFfYdH8Gipec8Eeeu0xXdbba9frFj0=OqFfea0dXdd9vqai=hGuQ8kuc9pgc9s8qqaq=dirpe0xb9q8qiLsFr0=vr0=vr0dc8meaabaqaciaacaGaaeqabaqabeGadaaakeaacqWGlbWsdaWgaaWcbaGaemyyaeMaemiCaaNaemiCaahabeaakiabg2da9iabdUealnaaDaaaleaacqWGKbazaeaacqWGHbqycqWGSbaBcqWGSbaBcqGHsislcqWG0baDcqWGYbGCcqWGHbqycqWGUbGBcqWGZbWCaaGcdaWadaqaaiabigdaXiabgUcaRmaalaaabaGaemOuai1aa0baaSqaaiabdsha0bqaaiabigdaXiabigdaXiabgkHiTiabdogaJjabdMgaPjabdohaZbaaaOqaaiabdUealnaaDaaaleaacqWGKbazaeaacqaIXaqmcqaIXaqmcqGHsislcqWGJbWycqWGPbqAcqWGZbWCaaaaaaGccaGLBbGaayzxaaaaaa@58DE@
The origin of the above expression is discussed in reviews dealing with competition assays. Substitution of equation 2 into equation 1 yields the following expression.
Fenh=C1+C2[Rtall−trans−(Rtall−trans+NPt+Kdall−trans+Kdall−transRt11−cis/Kd11−cis)^2−4NPtRtall−trans] MathType@MTEF@5@5@+=feaafiart1ev1aaatCvAUfKttLearuWrP9MDH5MBPbIqV92AaeXatLxBI9gBaebbnrfifHhDYfgasaacH8akY=wiFfYdH8Gipec8Eeeu0xXdbba9frFj0=OqFfea0dXdd9vqai=hGuQ8kuc9pgc9s8qqaq=dirpe0xb9q8qiLsFr0=vr0=vr0dc8meaabaqaciaacaGaaeqabaqabeGadaaakeaacqWGgbGrdaWgaaWcbaGaemyzauMaemOBa4MaemiAaGgabeaakiabg2da9iabdoeadnaaBaaaleaacqaIXaqmaeqaaOGaey4kaSIaem4qam0aaSbaaSqaaiabikdaYaqabaGcdaWadaqaaiabdkfasnaaDaaaleaacqWG0baDaeaacqWGHbqycqWGSbaBcqWGSbaBcqGHsislcqWG0baDcqWGYbGCcqWGHbqycqWGUbGBcqWGZbWCaaGccqGHsisldaGcaaqaamaabmaabaGaemOuai1aa0baaSqaaiabdsha0bqaaiabdggaHjabdYgaSjabdYgaSjabgkHiTiabdsha0jabdkhaYjabdggaHjabd6gaUjabdohaZbaakiabgUcaRiabd6eaojabdcfaqnaaBaaaleaacqWG0baDaeqaaOGaey4kaSIaem4saS0aa0baaSqaaiabdsgaKbqaaiabdggaHjabdYgaSjabdYgaSjabgkHiTiabdsha0jabdkhaYjabdggaHjabd6gaUjabdohaZbaakiabgUcaRmaalaaabaGaem4saS0aa0baaSqaaiabdsgaKbqaaiabdggaHjabdYgaSjabdYgaSjabgkHiTiabdsha0jabdkhaYjabdggaHjabd6gaUjabdohaZbaakiabdkfasnaaDaaaleaacqWG0baDaeaacqaIXaqmcqaIXaqmcqGHsislcqWGJbWycqWGPbqAcqWGZbWCaaaakeaacqWGlbWsdaqhaaWcbaGaemizaqgabaGaeGymaeJaeGymaeJaeyOeI0Iaem4yamMaemyAaKMaem4CamhaaaaaaOGaayjkaiaawMcaamaaCaaaleqabaGaeGOmaidaaOGaeyOeI0IaeGinaqJaemOta4Kaemiuaa1aaSbaaSqaaiabdsha0bqabaGccqWGsbGudaqhaaWcbaGaemiDaqhabaGaemyyaeMaemiBaWMaemiBaWMaeyOeI0IaemiDaqNaemOCaiNaemyyaeMaemOBa4Maem4CamhaaaqabaaakiaawUfacaGLDbaaaaa@A768@

Like-named read-outs stand apart in the source and are kept apart here.

Turning to `CC1=C(/C=C/C(C)=C/C=C/C(C)=C/CO)C(C)(C)CCC1` [all-trans retinol], the “Binding sites (N), Enhancement” value in test [1] (all-trans retinol fluorescence enhancement, ex 330 nm, em 480 nm, IRBP 0.65 μM) was 3.19 ± 0.10. For the same compound, the Kd in test [1] (all-trans retinol fluorescence enhancement, ex 330 nm, em 480 nm, IRBP 0.65 μM, read-out: Kd, Enhancement) was 300 ± 50 nM; in test [1] (all-trans retinol, energy transfer, ex 280 nm, em 480 nm, read-out: Kd, energy transfer) it was 290 ± 120 nM; in test [1] (quenching of protein fluorescence by all-trans retinol, ex 280 nm, em 340 nm, read-out: Kd, Quenching), 660 ± 140 nM; in test [1] (summary statement of the abstract, read-out: Kd (summary)), 200 to 300 nM; in test [2] (competition, in presence of 11-cis retinal, read-out: Kd All-trans retinol) it was 410 ± 90 nM. In test [1] (all-trans retinol, energy transfer, ex 280 nm, em 480 nm), the “Binding sites (N), energy transfer” value was found to be 3.72 ± 0.20. Moreover, in test [1] (quenching of protein fluorescence by all-trans retinol, ex 280 nm, em 340 nm), the “Binding sites (N), Quenching” value stood at 1.93 ± 0.41.

On to `CC1=C(/C=C/C(C)=C/C=C/C(C)=C/C=O)C(C)(C)CCC1` [11-cis retinal], for which, in test [1] (quenching of protein fluorescence by 11-cis retinaldehyde, ex 280 nm, em 340 nm), the “Binding sites (N), Quenching” value stood at 1.81 ± 0.15. For the same compound, the Kd in test [1] (quenching of protein fluorescence by 11-cis retinaldehyde, ex 280 nm, em 340 nm, read-out: Kd 11-cis, Quenching) was determined as 280 ± 50 nM; in test [2] (competition with all-trans retinol, read-out: Kd 11-cis retinal), 290 ± 50 nM. The “Binding sites (N)” value in test [2] (competition, shared sites) is reported as 1.47 ± 0.18.

Broadly, the Kd is the constant that tells how readily two partners part at equilibrium.
